Structures are written as SMILES.

Sequence of Human IDO1 (P14902 whole entry): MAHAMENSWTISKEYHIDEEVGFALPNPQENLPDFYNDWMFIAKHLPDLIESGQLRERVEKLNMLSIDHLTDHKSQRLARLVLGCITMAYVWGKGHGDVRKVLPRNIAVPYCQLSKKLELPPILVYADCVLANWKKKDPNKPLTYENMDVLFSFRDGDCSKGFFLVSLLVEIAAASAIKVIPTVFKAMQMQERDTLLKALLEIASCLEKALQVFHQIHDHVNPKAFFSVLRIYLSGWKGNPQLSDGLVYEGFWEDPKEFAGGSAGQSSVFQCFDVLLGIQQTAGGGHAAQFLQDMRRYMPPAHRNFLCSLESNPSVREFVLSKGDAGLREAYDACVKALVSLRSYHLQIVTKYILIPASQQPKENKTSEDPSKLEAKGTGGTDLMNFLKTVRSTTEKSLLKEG

This experiment concerns the target Human IDO1 (Homo sapiens (Human), UniProt P14902). Description: IDO Kynurenine Assay with Human IDO1/HEK293 Cells. In kind it is cell-based. To be noted: 20 hours incubation, kynurenine detected with Ehrlich reagent, absorbance at 490 nm, read-out: HEK Human IDO-1 IC50. The procedure: Human IDO1/HEK293 cells were seeded at 10,000 cells per 50 uL per well with RPMI/phenol red free media contains 10% FBS in a 384-well black wall clear bottom tissue culture plate (Matrix Technologies LLC) 125 nL of certain concentration of compound was then added to each well using ECHO liquid handling systems. The cells were incubated for 20 hours in 37° C. incubator with 5% CO2.
The compound treatments were stopped by adding Trichloroacetic Acid (Sigma-Aldrich) to a final concentration at 0.2%. The cell plate was further incubated at 50° C. for 30 minute. The equal volume supernatant (20 uL) and 0.2% (w/v) Ehrlich reagent (4-dimethylaminobenzaldehyde, Sigma-Aldrich) in glacial acetic acid were mixed in a new clear bottom 384-well plate. This plate was then incubated at room temperature for 30 minute. The absorbance at 490 nm was measured on Envision plate reader.
Compound IC50 values were calculated using the counts of 500 nM of a reference standard treatment as one hundred percent inhibition, and counts of no compound but DMSO treatment as zero percent inhibition.
In the case of `CC(C)CN(CC(C)C)c1ccc([C@@H]2C[C@@H]2C(=O)O)cc1NC(=O)Nc1cc(C(F)(F)F)no1` [Example 37, (1S,2R)-2-(4-(diisobutylamino)-3-(3-(3-(trifluoromethyl)isoxazol-5-yl)ureido)phenyl)cyclopropanecarboxylic acid], the IC50 was 7 nM.
On to `CC(C)CN(CC(C)C)c1ccc([C@H]2C[C@H]2C(=O)O)cc1NC(=O)Nc1ccccc1Cl` [Example 9, (1R,2S)-2-(3-(3-(2-chlorophenyl)ureido)-4-(diisobutylamino)phenyl) cyclopropanecarboxylic acid], for which the IC50 stood at 97 nM.
On to `CC(C)CN(CC(C)C)c1ccc([C@H]2C[C@H]2C(=O)O)cc1NC(=O)Nc1cc(C(F)(F)F)no1` [Example 36, (1R,2S)-2-(4-(diisobutylamino)-3-(3-(3-(trifluoromethyl)isoxazol-5-yl)ureido)phenyl)cyclopropanecarboxylic acid], for which the IC50 turned out to be 7 nM.
Then `Cc1ccc(CC(=O)Nc2cc([C@H]3C[C@H]3C(=O)O)ccc2N(CC(C)C)CC(C)C)cc1` [Example 60, (1R,2S)-2-(4-(diisobutylamino)-3-(2-(p-tolyl)acetamido)phenyl)cyclopropanecarboxylic acid], with 21 nM; and `Cc1cc(NC(=O)Nc2cc([C@H]3C[C@H]3C(=O)O)ccc2N(CC(C)C)C2CCCCC2)on1` [Example 129, (1R,2S)-2-(4-(cyclohexyl(isobutyl)amino)-3-(3-(3-methylisoxazol-5-yl)ureido)phenyl)cyclopropanecarboxylic acid], with 0.5 nM; and `CCOC(=O)Nc1ccc(NC(=O)Nc2cc([C@@H]3C[C@@H]3C(=O)O)ccc2N(CC(C)C)CC(C)C)cc1` [Example 71, (1S,2R)-2-(4-(diisobutylamino)-3-(3-(4-((ethoxycarbonyl)amino)phenyl)ureido)phenyl)cyclopropanecarboxylic acid], with 519 nM.
In the case of `CC(C)CN(CC(C)C)c1ccc([C@H]2C[C@H]2C(=O)O)cc1NC(=O)Nc1ccc(Cl)c(Cl)c1` [Example 6, (1R,2S)-2-(3-(3-(3,4-dichlorophenyl)ureido)-4-(diisobutylamino)phenyl) cyclopropanecarboxylic acid], the IC50 is 148 nM.
On to `Cc1ccc(NC(=O)Nc2cc([C@@H]3C[C@@H]3C(=O)O)ccc2N(CCCC(F)(F)F)C2CCCCC2)cc1` [Example 76, (1S,2R)-2-(4-(cyclohexyl(4,4,4-trifluorobutyl)amino)-3-(3-(p-tolyl)ureido)phenyl)cyclopropanecarboxylic acid], for which the IC50 was 338 nM.
As to `CC(C)CN(CC(C)C)c1ccc([C@H]2C[C@H]2C(=O)O)cc1NC(=O)Nc1ccc(CC#N)cc1` [Example 15, (1R,2S)-2-(3-(3-(4-(cyanomethyl)phenyl)ureido)-4-(diisobutylamino)phenyl) cyclopropanecarboxylic acid], the IC50 was determined as 541 nM.
For `Cc1ccc(NC(=O)Nc2cc([C@H]3C[C@H]3C(=O)O)ccc2N(CC(C)C)CC(C)C)c(Cl)c1` [Example 14, (1R,2S)-2-(3-(3-(2-chloro-4-methylphenyl)ureido)-4-(diisobutylamino)phenyl) cyclopropanecarboxylic acid], the IC50 is 86 nM.
The same measure for `Cc1cccc(NC(=O)Nc2cc([C@@H]3C[C@@H]3C(=O)O)ccc2N(CC(C)C)CC(C)C)c1` [Example 19, (1S,2R)-2-(4-(diisobutylamino)-3-(3-(m-tolyl)ureido)phenyl) cyclopropanecarboxylic acid]: 442 nM; for `Cc1cc(NC(=O)Nc2cc([C@H]3C[C@H]3C(=O)O)ccc2N(CC(C)C)CC(C)C)on1` [Example 30, (1R,2S)-2-(4-(diisobutylamino)-3-(3-(3-methylisoxazol-5-yl)ureido)phenyl)cyclopropanecarboxylic acid]: 6 nM.
Then `Cc1cc(NC(=O)Nc2cc([C@@H]3C[C@@H]3C(=O)O)ccc2N(CC(C)C)CC(C)C)on1` [Example 31, (1S,2R)-2-(4-(diisobutylamino)-3-(3-(3-methylisoxazol-5-yl)ureido)phenyl)cyclopropanecarboxylic acid], with 4 nM; and `O=C(Nc1cncnc1)Nc1cc([C@H]2C[C@H]2C(=O)O)ccc1N(CCC(F)(F)F)C1CCCCC1` [Example 87, (1R,2S)-2-(4-(cyclohexyl(3,3,3-trifluoropropyl)amino)-3-(3-(pyrimidin-5-yl)ureido)phenyl)cyclopropanecarboxylic acid], with 994 nM.
Consider `O=C(Nc1cncnc1)Nc1cc([C@H]2C[C@H]2C(=O)O)ccc1N(CCCC(F)(F)F)C1CCCCC1` [Example 75], for which the concentration for half-maximal inhibition (IC50) amounted to 787 nM.
The same measure for `Cc1ncc(NC(=O)Nc2cc([C@@H]3C[C@@H]3C(=O)O)ccc2N(CC(C)C)CC(C)C)cn1` [Example 77, (1S,2R)-2-(4-(diisobutylamino)-3-(3-(2-methylpyrimidin-5-yl)ureido)phenyl)cyclopropanecarboxylic acid]: 64 nM; for `Cc1cc(NC(=O)Nc2cc([C@@H]3C[C@@H]3C(=O)O)ccc2N(CC(C)C)CC(C)C)no1` [Example 67, (1S,2R)-2-(4-(diisobutylamino)-3-(3-(5-methylisoxazol-3-yl)ureido)phenyl)cyclopropanecarboxylic acid]: 23 nM.
As for `CC(C)CN(CC(C)C)c1ccc([C@H]2C[C@H]2C(=O)O)cc1NC(=O)Cc1ccc(F)cc1` [Example 117, (1R,2S)-2-(4-(diisobutylamino)-3-(2-(4-fluorophenyl)acetamido)phenyl)cyclopropanecarboxylic acid], the IC50 is 97 nM.
For `Cc1ccc(CC(=O)Nc2cc([C@H]3C[C@H]3C(=O)O)ccc2N(CC(C)C)CC(C)C)cn1` [Example 118, (1R,2S)-2-(4-(diisobutylamino)-3-(2-(6-methylpyridin-3-yl)acetamido)phenyl)cyclopropanecarboxylic acid], the concentration for half-maximal inhibition (IC50) amounted to 126 nM.
The same measure for `COC(=O)C1CC1c1ccc(N(CC(C)C)CC(C)C)c([N+](=O)[O-])c1` (stereo not drawn) [ent-1J]: 2 nM; for `Cc1cc(CC(=O)Nc2cc([C@@H]3C[C@@H]3C(=O)O)ccc2N(CC(C)C)CC(C)C)on1` [Example 63, (1S,2R)-2-(4-(diisobutylamino)-3-(2-(3-methylisoxazol-5-yl)acetamido)phenyl) cyclopropanecarboxylic acid]: 262 nM; for `CC(C)CN(CC(C)C)c1ccc([C@@H]2C[C@@H]2C(=O)O)cc1NC(=O)Nc1ccc(C2CC2)cc1` [Example 20, (1S,2R)-2-(3-(3-(4-cyclopropylphenyl)ureido)-4-(diisobutylamino)phenyl) cyclopropanecarboxylic acid]: 61 nM.
As for `Cc1ccc(NC(=O)Nc2cc([C@H]3C[C@H]3C(=O)O)ccc2N(CCCC(F)(F)F)C2CCCCC2)cc1` [Example 73, (1R,2S)-2-(4-(cyclohexyl(4,4,4-trifluorobutyl)amino)-3-(3-(p-tolyl)ureido)phenyl)cyclopropanecarboxylic acid], the IC50 came out at 527 nM.
Then `CC(C)CN(CC(C)C)c1ccc([C@H]2C[C@H]2C(=O)O)cc1NC(=O)Nc1ccc(C(F)(F)F)cc1` [Example 5, (1R,2S)-2-(4-(diisobutylamino)-3-(3-(4-(trifluoromethyl)phenyl)ureido)phenyl)cyclopropanecarboxylic acid], with 941 nM.
The same measure for `CC(C)CN(CC(C)C)c1ccc([C@H]2C[C@H]2C(=O)O)cc1NC(=O)Nc1cc(C2CC2)no1` [Example 34, (1R,2S)-2-(3-(3-(3-cyclopropylisoxazol-5-yl)ureido)-4-(diisobutylamino)phenyl)cyclopropanecarboxylic acid]: 2 nM; for `COC(=O)[C@@H]1C[C@@H]1c1ccc(N(CC(C)C)CC(C)C)c([N+](=O)[O-])c1` [Example 1J, (1R,2S)-methyl 2-(4-(diisobutylamino)-3-nitrophenyl) cyclopropanecarboxylate]: 8 nM.
Take `CC(C)CN(CC(C)C)c1ccc([C@@H]2C[C@@H]2C(=O)O)cc1NC(=O)Nc1ccc(OCC(F)(F)F)cc1` [Example 72, (1S,2R)-2-(4-(diisobutylamino)-3-(3-(4-(2,2,2-trifluoroethoxy)phenyl)ureido)phenyl)cyclopropanecarboxylic acid]: the IC50 worked out at 200 nM.
Turning to `COCCN(Cc1ccc(Cl)cc1)c1ccc([C@H]2C[C@H]2C(=O)O)cc1NC(=O)Nc1ccc(C)cc1` (single isomer, unassigned) [Example 43], the IC50 was determined as 88 nM.

Source of the values: patent US9675571B2, “Inhibitors of indoleamine 2,3-dioxygenase (IDO)” (BRISTOL-MYERS SQUIBB COMPANY, priority 2013, dated 2017).
